Paper PMC8875894, “Dabigatran Acylglucuronide, the Major Metabolite of Dabigatran, Shows a Weaker Anticoagulant Effect than Dabigatran” (Pharmaceutics, 2022)

Biological target: T1, thrombin (Homo sapiens, UniProt P00734)
T1 construct: gene F2
Test: thrombin generation assay in human plasma (fluorogenic Z-Gly-Gly-Arg-AMC, AUC); thrombin time prolonged

Cn1c(CNc2ccc(C(=N)N)cc2)nc2cc(C(=O)N(CCC(=O)O[C@@H]3O[C@H](C(=O)O)[C@@H](O)[C@H](O)[C@H]3O)c3ccccn3)ccc21 [DABG, dabigatran acylglucuronide]
IC50: 435 nM
